Measurements from patent US9315451B2, “Tetracycline compounds” (priority 2009, dated 2016).
Read-outs that look alike come from different tables or passages of the source.

Tests used:
Assay type in all cases: in vivo
[1] = test system: K. pneumoniae ESBL Isolate KP453; experiment: Murine kidney infection model, K. pneumoniae ESBL isolate KP453; conditions: Klebsiella pneumoniae, po, 36 h, BALB/c mice, PO 50 mg/kg at 9 and 24 hours post infection; read-out: KP453 ESBL UTI PO, log10 reduction in CFUs in the kidney versus untreated controls
Protocol: (§1) Kidney Infection Models for Uropathogenic E. coli EC200 and K. pneumoniae ESBL Isolate KP453
Compounds were also tested in BALB/c murine kidney infection model challenged with levofloxacin-resistant, ESBL^+ strain KP453 via intravenous injection with 2% carageenen. At 9 and 24 hours post infection mice were treated orally with 50 mg/kg of test compound. For IV administration, test compounds were dosed at 20 mg/kg. At 36 hours following initiation of treatment, mice were euthanized and bacterial reduction in the kidney was quantified by plating homogenates. Results are reported in Table D as log10 reduction in colony forming units (CFUs) in the kidney versus untreated controls (receiving no test compound).

[2] = Pharmacokinetic studies in rats; conditions: rat, plasma, male Sprague Dawley rats, fasted; for clearance: read-out: Cl, IV Rat PK; for bioavailability: oral 10 mg/kg vs IV 1 mg/kg, read-out: % F (oral bioavailability), Oral Rat PK; for Cmax: read-out: Cmax, IV Rat PK
Protocol: Pharmacokinetic Studies in Rats Test compounds were evaluated in fasted (no food for 18 hours prior to dosing) male Sprague Dawley rats (3 animals per group) by administration of 1 mg/kg intravenously into the jugular vein and […] by oral gavage. Ten plasma samples were drawn for each dosing route up to 24 hours into heparin-coated vacutainer tubes. The plasma concentrations of the test compounds were quantified by LC/MS/MS using an internal standards. WinNONLIN was used to determine PK parameters ±standard deviation (AUC, Cmax, CL, Vss and % oral bioavailabilty (% F) and are set forth in Table F.

[3] = test system: S. aureus Smith (ATCC 13709); experiment: Mouse systemic infection (septicemia) model, S. aureus Smith; conditions: Staphylococcus aureus, CD-1 female mice; for responders at 3 mg/kg: ATCC13709, iv, IV 3 mg/kg one hour post infection, read-out: SA Smith septicemia survival IV (3 mg/kg); for responders at 3 mg/kg / responders at 30 mg/kg: 48 h, survival at 48 hours; for responders at 30 mg/kg: ATCC13709, po, PO 30 mg/kg one hour post infection, read-out: SA Smith septicemia survival PO (30 mg/kg); for ED50: ATCC13709, dose that prevents 50% of the mice from death, 48 hours
Protocol: Mouse Systemic Infection Protocol-S. aureus Smith Septicemia
Compounds were screened for antibacterial activity in vivo in a mouse systemic infection (septicemia) model. In the model, CD-1 female mice (18-22 grams) were injected IP with a S. aureus Smith (ATCC 13709) inoculum that results in 0% survival within 24 to 48 hours. The bacterial dose required to achieve this effect was previously established through virulence studies. At one hour post infection, mice received either […] IV or […] PO. Typically, six mice were treated per dose group. Animal survival was assessed and recorded for 48 hours. Percent survival at 48 hours was recorded and PD50 (mg/kg) was determined for each compound tested.

[4] = test system: Uropathogenic E. coli EC200; experiment: Murine kidney infection model, uropathogenic E. coli EC200; conditions: Escherichia coli, po, 36 h, BALB/c mice, read-out: EC200 UTI PO, log10 reduction in CFUs in the kidney versus untreated controls; for log reduction at 2 mg/kg: PO 2 mg/kg at 12 and 24 hours post infection
Protocol: as §1
Compounds were tested in a BALB/c murine kidney infection model challenged with tetracycline-resistant E. coli strain uropathogenic […] via intravenous injection. […] For IV administration test compound was dosed at 3 mg/kg. Thirty-six hours following initiation of treatment, mice were euthanized and bacterial reduction in the kidney was quantified by plating kidney homogenates. Results are reported in Table D as log10 reduction in colony forming units (CFUs) in the kidney versus untreated controls (receiving no test compound).

[5] = IV 1 mg/kg, read-out: AUC, IV Rat PK
[6] = oral gavage 10 mg/kg, read-out: AUC, Oral Rat PK
[7] = PO, read-out: SA Smith septicemia PD50 PO
[8] = IV, read-out: SA Smith septicemia PD50 IV

| Structure (SMILES) | log reduction at 50 mg/kg [1] | responders at 3 mg/kg [3] [%] | responders at 30 mg/kg [3] [%] | log reduction at 2 mg/kg [4] | also measured |
| --- | --- | --- | --- | --- | --- |
| CN(C)[C@@H]1C(O)=C(C(N)=O)C(=O)[C@@]2(O)C(O)=C3C(=O)c4c(O)cc(CN(C)C(C)(C)C)c(Cl)c4C[C@H]3C[C@@H]12 [Compound S15-13-15] | 1.45 | 100 | 100 | 2.82 | clearance ([2]; IV 1 mg/kg): 15.4 mL/min/kg; bioavailability [2]: 21%; AUC [2, 5]: 1100 ng·h/mL; Cmax ([2]; IV 1 mg/kg): 154 ng/mL; AUC [2, 6]: 2260 ng·h/mL; ED50 [3, 7]: 3.5 mg/kg |
| CN(C)[C@@H]1C(O)=C(C(N)=O)C(=O)[C@@]2(O)C(O)=C3C(=O)c4c(O)cc(CN5CCCC5)c(C(F)(F)F)c4C[C@H]3C[C@@H]12 [Compound S25-11-1] | 1.84 | 100 | 100 | 3.97 |  |
| CN(C)[C@@H]1C(O)=C(C(N)=O)C(=O)[C@@]2(O)C(O)=C3C(=O)c4c(O)cc(CN5CCCC5)c(Cl)c4C[C@H]3C[C@@H]12 [Compound S15-13-187] |  | 100 | 100 |  | log reduction at 3 mg/kg ([4]; PO @ 3 mpk): 3.46 |
| CN(C)[C@@H]1C(O)=C(C(N)=O)C(=O)[C@@]2(O)C(O)=C3C(=O)c4c(O)cc(CN(C)C(C)(C)C5CC5)c(F)c4C[C@H]3C[C@@H]12 [Compound S2-4-29] |  | 100 | 100 |  | clearance ([2]; IV 1 mg/kg): 26.5 mL/min/kg; bioavailability [2]: 25.4%; AUC [2, 5]: 616 ng·h/mL; Cmax ([2]; IV 1 mg/kg): 112 ng/mL; AUC [2, 6]: 1600 ng·h/mL; ED50 [3, 8]: 1 mg/kg; ED50 [3, 7]: 3.5 mg/kg |
| C[C@H]1CCCN1Cc1cc(O)c2c(c1Cl)C[C@H]1C[C@H]3[C@H](N(C)C)C(O)=C(C(N)=O)C(=O)[C@@]3(O)C(O)=C1C2=O [Compound S15-13-194] | 2.18 | 100 | 100 | 3.44 |  |
| CC1CCN(Cc2cc(O)c3c(c2F)C[C@H]2C[C@H]4[C@H](N(C)C)C(O)=C(C(N)=O)C(=O)[C@@]4(O)C(O)=C2C3=O)CC1 [Compound S2-4-19] | 1.27 | 100 | 83 | 1.91 | clearance ([2]; IV 1 mg/kg): 5 mL/min/kg; bioavailability [2]: 14.9%; AUC [2, 5]: 3320 ng·h/mL; Cmax ([2]; IV 1 mg/kg): 518 ng/mL; AUC [2, 6]: 4980 ng·h/mL; ED50 [3, 8]: 1 mg/kg; ED50 [3, 7]: 14.3 mg/kg |
| CN(C)[C@@H]1C(O)=C(C(N)=O)C(=O)[C@@]2(O)C(O)=C3C(=O)c4c(O)cc(CN5CCCC5)c(F)c4C[C@H]3C[C@@H]12 [Compound S3-5-5] | 1.01 | 100 | 100 | 2.26 |  |
| CCN(Cc1cc(O)c2c(c1Cl)C[C@H]1C[C@H]3[C@H](N(C)C)C(O)=C(C(N)=O)C(=O)[C@@]3(O)C(O)=C1C2=O)[C@H](C)C(C)(C)C [Compound S15-13-122] | 1.84 |  |  | 2.64 |  |
| COc1c(CN2[C@H](C)CCC[C@@H]2C)cc(O)c2c1C[C@H]1C[C@H]3[C@H](N(C)C)C(O)=C(C(N)=O)C(=O)[C@@]3(O)C(O)=C1C2=O [Compound S24-9-25] | 1.71 | 100 | 100 | 2.99 |  |
| COc1c(CN2CCCC[C@@H]2C)cc(O)c2c1C[C@H]1C[C@H]3[C@H](N(C)C)C(O)=C(C(N)=O)C(=O)[C@@]3(O)C(O)=C1C2=O [Compound S24-9-17] | 2.41 | 100 | 100 | 2.61 |  |
| CCN(Cc1cc(O)c2c(c1F)C[C@H]1C[C@H]3[C@H](N(C)C)C(O)=C(C(N)=O)C(=O)[C@@]3(O)C(O)=C1C2=O)CC(C)C [Compound S2-4-50] |  |  |  |  | ED50 [3, 8]: 1 mg/kg; ED50 [3, 7]: 10.1 mg/kg |
| CC1CCN(Cc2cc(O)c3c(c2Cl)C[C@H]2C[C@H]4[C@H](N(C)C)C(O)=C(C(N)=O)C(=O)[C@@]4(O)C(O)=C2C3=O)CC1 [Compound S15-13-182] |  | 33 | 67 |  |  |
| CN(C)[C@@H]1C(O)=C(C(N)=O)C(=O)[C@@]2(O)C(O)=C3C(=O)c4c(O)cc(CN5CCCC5(C)C)c(Cl)c4C[C@H]3C[C@@H]12 [Compound S15-13-4] | 1.69 | 100 | 100 | 3.17 | ED50 [3, 7]: 6.2 mg/kg |
| C[C@H]1CCCN1Cc1cc(O)c2c(c1C(F)(F)F)C[C@H]1C[C@H]3[C@H](N(C)C)C(O)=C(C(N)=O)C(=O)[C@@]3(O)C(O)=C1C2=O [Compound S25-11-48] |  | 100 | 100 |  |  |
| CN(C)[C@@H]1C(O)=C(C(N)=O)C(=O)[C@@]2(O)C(O)=C3C(=O)c4c(O)cc(CN5CCCCC56CC6)c(F)c4C[C@H]3C[C@@H]12 [Compound S2-4-11] |  | 0 | 0 |  |  |
| CN(C)[C@@H]1C(O)=C(C(N)=O)C(=O)[C@@]2(O)C(O)=C3C(=O)c4c(O)cc(NC(=O)CN5CCCC5)cc4C[C@H]3C[C@@H]12 [Compound S21-12-1] |  | 100 | 33 |  |  |
| CN(C)[C@@H]1C(O)=C(C(N)=O)C(=O)[C@@]2(O)C(O)=C3C(=O)c4c(O)cc(CNC5Cc6ccccc6C5)c(F)c4C[C@H]3C[C@@H]12 [Compound S1-14-90] |  | 33 | 0 |  |  |
| C[C@H]1CCCCN1Cc1cc(O)c2c(c1F)C[C@H]1C[C@H]3[C@H](N(C)C)C(O)=C(C(N)=O)C(=O)[C@@]3(O)C(O)=C1C2=O [Compound S2-4-65] | 2.28 | 100 | 100 | 3.18 | ED50 [3, 7]: 8.4 mg/kg; log reduction at 12 mg/kg ([4]; PO @ 12 mpk): 4.61 |
| C[C@@H]1CC[C@H](C)N1Cc1cc(O)c2c(c1Cl)C[C@H]1C[C@H]3[C@H](N(C)C)C(O)=C(C(N)=O)C(=O)[C@@]3(O)C(O)=C1C2=O [Compound S15-13-203] |  | 100 | 100 |  |  |
| CN(C)[C@@H]1C(O)=C(C(N)=O)C(=O)[C@@]2(O)C(O)=C3C(=O)c4c(O)cc(CNCC56CC7CC(CC(C7)C5)C6)c(F)c4C[C@H]3C[C@@H]12 [Compound S1-14-25] |  | 33 | 17 |  |  |
| CN(C)[C@@H]1C(O)=C(C(N)=O)C(=O)[C@@]2(O)C(O)=C3C(=O)c4c(O)cc(CN5CCCCC5)c(C(F)(F)F)c4C[C@H]3C[C@@H]12 [Compound S25-11-68] |  | 50 | 83 |  |  |
| CN(C)[C@@H]1C(O)=C(C(N)=O)C(=O)[C@@]2(O)C(O)=C3C(=O)c4c(O)cc(CNC(C)(C)CC(C)(C)C)c(F)c4C[C@H]3C[C@@H]12 [Compound S2-4-7] |  | 67 | 17 |  |  |
| CC(C)CN(C)C(C)(C)c1cc(O)c2c(c1Cl)C[C@H]1C[C@H]3[C@H](N(C)C)C(O)=C(C(N)=O)C(=O)[C@@]3(O)C(O)=C1C2=O [Compound S27-9-7] |  | 17 | 33 |  |  |
